Assay: xn = mol fraction of the nth substance listed
Details: 100.5 kPa, Liquid; for viscosity: Capillary tube (Ostwald / Ubbelohde) method

CC(=O)OCc1ccccc1 [benzyl ethanoate] + CCO
Details | mass density, 288.15 K [kg/m3] | mass density, 298.15 K [kg/m3] | mass density, 308.15 K [kg/m3] | mass density, 318.15 K [kg/m3] | viscosity, 288.15 K [mPa·s] | viscosity, 298.15 K [mPa·s] | viscosity, 308.15 K [mPa·s] | viscosity, 318.15 K [mPa·s]
x1 = 0.05 | 825.52 | 816.73 | 807.83 | 798.78 | 1.317 | 1.089 | 0.91 | 0.766
x1 = 0.1 | 852.86 | 843.91 | 834.85 | 825.63 | 1.328 | 1.098 | 0.92 | 0.779
x1 = 0.15 | 876.56 | 867.47 | 858.28 | 848.94 | 1.357 | 1.123 | 0.942 | 0.796
x1 = 0.2 | 897.58 | 888.4 | 879.1 | 869.66 | 1.393 | 1.154 | 0.967 | 0.821
x1 = 0.25 | 916.18 | 906.92 | 897.57 | 888.07 | 1.439 | 1.191 | 0.998 | 0.846
x1 = 0.3 | 932.86 | 923.54 | 914.12 | 904.56 | 1.489 | 1.231 | 1.031 | 0.875
x1 = 0.35 | 947.82 | 938.44 | 928.98 | 919.38 | 1.543 | 1.274 | 1.067 | 0.906
x1 = 0.4 | 961.41 | 952 | 942.5 | 932.88 | 1.601 | 1.319 | 1.104 | 0.937
x1 = 0.45 | 973.74 | 964.29 | 954.76 | 945.12 | 1.661 | 1.365 | 1.142 | 0.971
x1 = 0.5 | 984.92 | 975.44 | 965.91 | 956.27 | 1.724 | 1.413 | 1.182 | 1.005
x1 = 0.55 | 995.2 | 985.72 | 976.17 | 966.52 | 1.789 | 1.465 | 1.223 | 1.04
x1 = 0.6 | 1004.68 | 995.21 | 985.66 | 976.03 | 1.859 | 1.518 | 1.268 | 1.077
x1 = 0.65 | 1013.4 | 1003.92 | 994.38 | 984.76 | 1.929 | 1.571 | 1.312 | 1.116
x1 = 0.7 | 1021.55 | 1012.1 | 1002.56 | 992.96 | 2.003 | 1.629 | 1.36 | 1.156
x1 = 0.75 | 1029.05 | 1019.58 | 1010.07 | 1000.51 | 2.081 | 1.691 | 1.409 | 1.197
x1 = 0.8 | 1036.05 | 1026.61 | 1017.13 | 1007.6 | 2.163 | 1.76 | 1.463 | 1.241
x1 = 0.85 | 1042.59 | 1033.16 | 1023.71 | 1014.22 | 2.249 | 1.83 | 1.524 | 1.289
x1 = 0.9 | 1048.78 | 1039.39 | 1029.98 | 1020.53 | 2.339 | 1.906 | 1.588 | 1.341
x1 = 0.95 | 1054.57 | 1045.21 | 1035.84 | 1026.44 | 2.44 | 1.987 | 1.652 | 1.392
x1 = 1 | 1060.11 | 1050.75 | 1041.39 | 1032.03 | 2.53 | 2.056 | 1.703 | 1.432

CCC(=O)OCc1ccccc1 [benzyl propanoate] + CCO
Details | mass density, 288.15 K [kg/m3] | mass density, 298.15 K [kg/m3] | mass density, 308.15 K [kg/m3] | mass density, 318.15 K [kg/m3] | viscosity, 288.15 K [mPa·s] | viscosity, 298.15 K [mPa·s] | viscosity, 308.15 K [mPa·s] | viscosity, 318.15 K [mPa·s]
x1 = 0.05 | 825.63 | 816.86 | 807.99 | 798.97 | 1.352 | 1.115 | 0.929 | 0.777
x1 = 0.1 | 852.43 | 843.5 | 834.48 | 825.3 | 1.379 | 1.14 | 0.949 | 0.795
x1 = 0.15 | 875.21 | 866.17 | 857.03 | 847.75 | 1.42 | 1.173 | 0.976 | 0.819
x1 = 0.2 | 894.95 | 885.82 | 876.6 | 867.25 | 1.466 | 1.211 | 1.009 | 0.848
x1 = 0.25 | 912.16 | 902.96 | 893.68 | 884.27 | 1.516 | 1.253 | 1.044 | 0.879
x1 = 0.3 | 927.38 | 918.13 | 908.8 | 899.34 | 1.571 | 1.298 | 1.084 | 0.913
x1 = 0.35 | 940.83 | 931.54 | 922.17 | 912.69 | 1.631 | 1.348 | 1.127 | 0.95
x1 = 0.4 | 952.87 | 943.55 | 934.16 | 924.65 | 1.694 | 1.401 | 1.171 | 0.988
x1 = 0.45 | 963.72 | 954.39 | 944.97 | 935.46 | 1.757 | 1.454 | 1.217 | 1.027
x1 = 0.5 | 973.57 | 964.22 | 954.79 | 945.28 | 1.821 | 1.509 | 1.263 | 1.067
x1 = 0.55 | 982.43 | 973.07 | 963.63 | 954.12 | 1.886 | 1.564 | 1.31 | 1.107
x1 = 0.6 | 990.54 | 981.17 | 971.74 | 962.24 | 1.952 | 1.621 | 1.358 | 1.148
x1 = 0.65 | 997.98 | 988.61 | 979.19 | 969.71 | 2.019 | 1.678 | 1.407 | 1.19
x1 = 0.7 | 1004.81 | 995.44 | 986.04 | 976.58 | 2.088 | 1.737 | 1.457 | 1.233
x1 = 0.75 | 1011.09 | 1001.73 | 992.35 | 982.93 | 2.158 | 1.797 | 1.509 | 1.278
x1 = 0.8 | 1016.98 | 1007.63 | 998.28 | 988.88 | 2.23 | 1.858 | 1.562 | 1.323
x1 = 0.85 | 1022.5 | 1013.15 | 1003.82 | 994.46 | 2.305 | 1.921 | 1.617 | 1.37
x1 = 0.9 | 1027.59 | 1018.25 | 1008.96 | 999.64 | 2.383 | 1.986 | 1.674 | 1.419
x1 = 0.95 | 1032.37 | 1023.06 | 1013.8 | 1004.53 | 2.463 | 2.053 | 1.729 | 1.468
x1 = 1 | 1036.86 | 1027.6 | 1018.38 | 1009.15 | 2.55 | 2.123 | 1.787 | 1.515

From the NIST ThermoML archive (doi:10.1021/je050402s)
